Key:
[1] = 298.15 K; 101.33 kPa; Liquid; Vibrating tube method
[2] = refractive index (Na D-line) (dimensionless); conditions: 298.15 K; 101.33 kPa; Liquid; Standard Abbe refractometry
[3] = xn = mol fraction of the nth substance listed; conditions: 298.15 K, 101 kPa, Liquid, Vibrating tube method
[4] = refractive index (Na D-line) (dimensionless); xn = mol fraction of the nth substance listed; conditions: 298.15 K, 101 kPa, Liquid, Standard Abbe refractometry

CC(C)=O [acetone]
Conditions	mass density [kg/m3]	refractive index
[1]	784.9	–
[2]	–	1.356

CCCCCC [hexane]
Conditions	mass density [kg/m3]	refractive index
[1]	655.1	–
[2]	–	1.3724

CC(C)=O [acetone] + O
Conditions	mass density, [3] [kg/m3]	refractive index, [4]
x1 = 0.0502	977	1.3422
x1 = 0.0993	959.3	1.3499
x1 = 0.1502	942.2	1.3549
x1 = 0.1996	926.6	1.3583
x1 = 0.2496	911.8	1.3604
x1 = 0.3007	897.6	1.3616
x1 = 0.3507	884.8	1.3621
x1 = 0.4003	873.1	1.3623
x1 = 0.4509	862.1	1.3621
x1 = 0.4992	852.5	1.3618
x1 = 0.5489	843.5	1.3614
x1 = 0.599	835	1.3609
x1 = 0.6506	827	1.3603
x1 = 0.6996	819.9	1.3602
x1 = 0.7014	819.6	1.3597
x1 = 0.7467	813.4	1.3591
x1 = 0.8011	806.2	1.3592
x1 = 0.8015	806.3	1.3583
x1 = 0.846	800.8	1.3577
x1 = 0.8969	794.9	1.3569
x1 = 0.9005	794.5	1.3572
x1 = 0.9451	789.9	1.3564

CC(C)=O [acetone] + CCCCCC
Conditions	mass density, [3] [kg/m3]	refractive index, [4]
x1 = 0.0504	657.2	1.3709
x1 = 0.0994	659.7	1.3699
x1 = 0.1511	662.9	1.3688
x1 = 0.1999	666.3	1.3679
x1 = 0.2497	670.1	1.3668
x1 = 0.3006	674.4	1.366
x1 = 0.3518	679	1.3651
x1 = 0.4006	683.7	1.3643
x1 = 0.4476	688.7	1.3635
x1 = 0.4995	694.5	1.3627
x1 = 0.5498	700.7	1.3618
x1 = 0.5976	707	1.3611
x1 = 0.6479	714.1	1.3603
x1 = 0.697	721.7	1.3595
x1 = 0.7503	730.5	1.3587
x1 = 0.7998	739.4	1.358
x1 = 0.8499	749.1	1.3572
x1 = 0.8979	759.3	1.3568
x1 = 0.9507	771.7	1.3561

O [water]
Conditions	refractive index
[2]	1.3325
